Counter-ions that a name gives are not always drawn. Like-named read-outs stand apart in the source and are kept apart here.
Tests used:
[1] = test system: HCV subgenomic replicon in Huh-7 cells; experiment: Replicon assay, EC50 luciferase readout; format: cell-based, hepatitis C virus (HCV); details: Hepatitis C virus
Procedure, shortened: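 Huh-7 cells carrying a subgenomic HCV replicon (NS3-NS5b, firefly luciferase-neo fusion) were treated with compound for 72 h at 37°C, 5% CO2. EC50 derived from Bright-Glo luciferase signal as a proxy for HCV RNA; cell viability measured in parallel by Alamar blue.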

[2] = target: T1, HCV NS3 protease (full length NS34a) (Hepatitis C virus genotype 1b, UniProt P26663); experiment: HCV NS3 protease assay (FRET, full length NS34a); format: biochemical; details: for inhibition at 0.01 µM: read-out: Activity % inhibition @ 0.01 μM; for inhibition at 0.03 µM: read-out: Activity % inhibition @ 0.03 μM, 0.03 μM compound
T1 construct: The protease activity of the full length NS34a was measured using a FRET-based assay; made in house
T1 sequence (P26663 1658-1711): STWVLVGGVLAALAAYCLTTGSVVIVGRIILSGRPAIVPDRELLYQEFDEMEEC
T1 sequence (P26663 1027-1657): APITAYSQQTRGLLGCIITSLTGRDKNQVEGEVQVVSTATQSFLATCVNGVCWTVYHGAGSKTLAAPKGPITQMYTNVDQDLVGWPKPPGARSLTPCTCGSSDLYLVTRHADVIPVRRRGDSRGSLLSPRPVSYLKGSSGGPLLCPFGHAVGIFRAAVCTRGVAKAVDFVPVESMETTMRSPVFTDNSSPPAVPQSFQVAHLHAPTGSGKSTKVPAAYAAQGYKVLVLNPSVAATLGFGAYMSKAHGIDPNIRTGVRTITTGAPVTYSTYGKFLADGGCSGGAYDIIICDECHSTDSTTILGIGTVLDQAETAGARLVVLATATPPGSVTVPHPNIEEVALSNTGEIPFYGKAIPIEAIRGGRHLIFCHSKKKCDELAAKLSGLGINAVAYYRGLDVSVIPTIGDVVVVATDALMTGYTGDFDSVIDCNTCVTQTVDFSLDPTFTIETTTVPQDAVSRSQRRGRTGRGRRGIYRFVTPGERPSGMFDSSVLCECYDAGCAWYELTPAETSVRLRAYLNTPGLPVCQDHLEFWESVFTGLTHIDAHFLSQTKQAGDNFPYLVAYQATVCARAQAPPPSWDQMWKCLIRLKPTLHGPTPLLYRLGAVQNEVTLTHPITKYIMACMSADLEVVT
Procedure, shortened: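 FRET readout over 30 minutes at room temperature, with IC50 fitted to initial rates from replicate curves. Enzyme was full-length NS34a; substrate a peptide from the NS4AB cleavage site labelled with QXL520 and 5-FAMsp; buffer 50 mM Tris pH8 containing 20 mM DTT, 1% CHAPS, 10% glycerol and 5% DMSO.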

[3] = Huh-7, 72 h, Huh-7 replicon cells, 72 h, single value, or second value of a pair x:y, read-out: Activity EC50 (μM) (EC50 luciferase readout)
[4] = protease activity of full length NS34a, FRET peptide substrate, read-out: Activity IC50
[5] = IC50 values of 10-150 μM against the protease activity of the full length NS34a, or at least 40% inhibition of protease activity at a concentration of 100 μM
[6] = Huh-7, 72 h, read-out: Activity EC50 (μM) (EC50 luciferase readout), Huh-7 replicon cells, 72 h, single value, or second value of a pair x:y

Row | SMILES | EC50 [1, 3] [µM] | IC50 [2, 4] [µM] | also measured
1 | C[C@H](CC(=O)NCCN)NCc1ccc(Cl)c(Oc2ccccc2)c1F [Example 107, (R)—N-(2-Amino-ethyl)-3-(4-chloro-2-fluoro-3-phenoxy-benzylamino)-butyramide.dihydrochloride] | > 10 | 0.22 | –
2 | Fc1ccc(CNc2ccncc2)c(F)c1Oc1ccccc1 [Example 110, (2,4-Difluoro-3-phenoxy-benzyl)-pyridin-4-yl-amine.hydrochloride] | 2.3 | 2.6 | –
3 | CC[C@@H](N)c1ccc(Cl)c(Oc2ccc(N)c(C)c2)c1F [Example 112, 4-[3-((R)-1-Amino-propyl)-6-chloro-2-fluoro-phenoxy]-2-methyl-phenylamine.dihydrochloride] | > 10 | 0.16 | –
4 | CC[C@H](N)c1ccc(Cl)c(Oc2ccc(N)nc2)c1F [Example 114] | > 10 | 1 | –
5 | CC[C@@H](N)c1ccc(Cl)c(Oc2cccc(CO)c2)c1F [Example 115] | > 10 | 1.8 | –
6 | CC[C@@H](N[C@@H](C)CC(N)=O)c1ccc(Cl)c(Oc2cccc(CO)c2)c1F [Example 116] | 0.19 | 0.13 | –
7 | CCC[C@@H](N)c1ccc(Cl)c(Oc2ccccc2)c1F [Example 118] | 4.4 | 1.7 | –
8 | CCC[C@H](N)c1ccc(Cl)c(Oc2ccccc2)c1F [Example 119] | 3.4 | 0.32 | –
9 | CC[C@@H](N[C@H](C)CC(N)=O)c1ccc(Cl)c(Oc2ccc(N)nc2)c1F [Example 123] | 4.7 | 1.6 | –
10 | CC[C@@H](N[C@@H](C)CC(N)=O)c1ccc(Cl)c(Oc2ccc(N)nc2)c1F [Example 124] | 0.28 | 0.11 | –
11 | CCC[C@@H](N[C@@H](C)CC(N)=O)c1ccc(Cl)c(Oc2ccccc2)c1F [Example 125] | 0.38 | 0.23 | –
12 | CC[C@@H](N[C@@H](C)CC(N)=O)c1ccc(Cl)c(Oc2ccc(N)c(C)c2)c1F [Example 127] | 0.014 | 0.11 | –
13 | CC[C@@H](N[C@H](C)CC(N)=O)c1ccc(Cl)c(Oc2ccc(N)c(C)c2)c1F [Example 128] | > 10 | 1.2 | –
14 | CC[C@@H](N[C@@H](C)CC(=O)NC)c1ccc(Cl)c(Oc2ccccc2)c1F [Example 131A, (S)-3-[(R)-1-(4-Chloro-2-fluoro-3-phenoxy-phenyl)-propylamino]-N-methyl-butyramide.hydrochloride] | > 10 | 1.2 | –
15 | CC[C@@H](CC(N)=O)N[C@H](CC)c1ccc(Cl)c(Oc2ccccc2)c1F [Example 134B, (S)-3-[(R)-1-(4-Chloro-2-fluoro-3-phenoxy-phenyl)-propylamino]-pentanoic acid amide.hydrochloride] | 0.4 | 0.084 | –
16 | CC[C@H](Nc1cccc2c1CNCC2)c1ccc(F)c(Oc2ccccc2)c1F [Example 137] | 7.8 | 0.45 | –
17 | CC[C@@H](N[C@H](CC(N)=O)C(C)C)c1ccc(Cl)c(Oc2ccccc2)c1F [Example 143] | 6.2 | 0.54 | –
18 | CC[C@@H](N[C@@H](C)c1cn[nH]c1)c1ccc(Cl)c(Oc2ccccc2)c1F [Example 145A, [(R)-1-(4-Chloro-2-fluoro-3-phenoxy-phenyl)-propyl]-[(S)-1-(1H-pyrazol-4-yl)-ethyl]-amine. dihydrochloride] | 9.5 | 7.4 | –
19 | CC[C@@H](N[C@@H](C)CC(=O)NN)c1ccc(Cl)c(Oc2ccccc2)c1F [Example 154] | 17 | 0.18 | –
20 | CC[C@@H](N[C@@H](C)CC(=O)NOC)c1ccc(Cl)c(Oc2ccccc2)c1F [Example 155] | > 10 | 1.7 | –
21 | CC[C@@H](N[C@H](C)c1cc[nH]c1)c1ccc(Cl)c(Oc2ccccc2)c1F [Example 163, [(R)-1-(4-Chloro-2-fluoro-3-phenoxy-phenyl)-propyl]-1-[(R)-1-(1H-pyrrol-3-yl)-ethyl]-amine.dihydrochloride] | 0.94 | 2.5 | –
22 | CC[C@@H](N[C@@H](C)c1cc[nH]c1)c1ccc(Cl)c(Oc2ccccc2)c1F [Example 164] | 2.3 | 0.27 | –
23 | CC[C@@H](N[C@H](CC(N)=O)C1CC1)c1ccc(Cl)c(Oc2ccccc2)c1F [Example 165] | > 10 | – | IC50 [2, 5]: 10 to 150 µM
24 | CC[C@@H](N[C@@H](C)CC(=O)NCC(N)=O)c1ccc(Cl)c(Oc2ccccc2)c1F [Example 178] | 8 | 2.2 | –
25 | CC[C@@H](N[C@@H](C)CC(N)=O)c1ccc(Cl)c(Oc2ccc(C#N)cc2)c1F [Example 186] | 0.13 | 0.039 | –

Row | SMILES | EC50 [1, 3] [µM] | IC50 [2, 4] [µM] | also measured
26 | CC[C@@H](N[C@@H](C)CC(N)=O)c1ccc(Cl)c(Oc2cccc(NS(C)(=O)=O)c2)c1F [Example 196] | 0.27 | 0.42 | –
27 | CC[C@@H](N[C@@H](C)CC(N)=O)c1ccc(Cl)c(Oc2ccc([N+](=O)[O-])cc2)c1F [Example 201] | > 10 | 0.2 | –
28 | CC[C@@H](N[C@@H](C)CC(=O)N[C@H](C)CO)c1ccc(Cl)c(Oc2ccccc2)c1F [Example 207] | – | 0.21 | EC50 [1, 6]: > 10 µM
29 | CC[C@@H](N[C@@H](C)CC(N)=O)c1ccc(Cl)c(Oc2ccc(C#N)c(OC)c2)c1F [Example 210] | – | 0.16 | EC50 [1, 6]: 0.2 µM
30 | CC[C@@H](N[C@@H](C)CC(N)=O)c1ccc(Cl)c(Oc2ccc(CC#N)cc2)c1F [Example 211] | – | 0.072 | EC50 [1, 6]: 0.066 µM
31 | CC[C@@H](N[C@H](C)CC(N)=O)c1ccc(Cl)c(Oc2ccc(CC#N)cc2)c1F [Example 212] | – | 0.82 | EC50 [1, 6]: > 10 µM
32 | CC[C@@H](N[C@@H](C)CC(N)=O)c1ccc(Cl)c(Oc2ccc(C#N)c(F)c2)c1F [Example 213] | 5.2 | 0.13 | –
33 | CC[C@@H](N[C@@H](C)CC(N)=O)c1ccc(Cl)c(Oc2cccc(CNS(C)(=O)=O)c2)c1F [Example 216] | > 10 | 0.97 | –
34 | CC[C@@H](N[C@@H](C)CC(N)=O)c1ccc(Cl)c(Oc2ccc(-c3cnco3)cc2)c1F [Example 219] | 0.32 | 0.22 | –
35 | CC[C@@H](N)c1ccc(Cl)c(Oc2ccc(C#N)c(C)c2)c1F [Example 221] | > 30 | 0.43 | –
36 | CC[C@@H](N[C@@H](C)CC(=O)NC1COC1)c1ccc(Cl)c(Oc2ccccc2)c1F [Example 222] | > 10 | 0.37 | –
37 | CC[C@@H](N[C@H](C)CC(=O)NCCN)c1ccc(Cl)c(Oc2ccccc2)c1F [Example 223, (R)—N-(2-Amino-ethyl)-3-[(R)-1-(4-chloro-2-fluoro-3-phenoxy-phenyl)-propylamino]-butyramide.dihydrochloride] | > 30 | – | IC50 ([2]; Activity IC50 (μM), protease activity of full length NS34a, FRET peptide substrate): 0.081 µM
38 | CC[C@@H](N[C@@H](C)CC(=O)NCCN)c1ccc(Cl)c(Oc2ccccc2)c1F [Example 224] | 0.0088 | – | inhibition at 0.01 µM [2]: 65.5%
39 | Cc1cc(Oc2c(F)ccc(CNc3ccncc3)c2F)ccc1N [Example 225B, [3-(4-Amino-3-methyl-phenoxy)-2,4-difluoro-benzyl]-pyridin-4-yl-amine. hydrochloride] | 0.68 | 0.73 | –
40 | CC[C@@H](N[C@@H](C)CC(N)=O)c1ccc(Cl)c(Oc2cccc(C#N)c2)c1F [Example 226] | 2.9 | 0.2 | –
41 | C#Cc1ccc(Oc2c(Cl)ccc([C@@H](CC)N[C@@H](C)CC(N)=O)c2F)cc1 [Example 230] | 0.48 | 0.17 | –
42 | CC[C@@H](N[C@@H](C)CC(N)=O)c1ccc(Cl)c(Oc2ccc3c(c2)OCC3)c1F [Example 233] | 0.079 | 0.11 | –
43 | CC[C@@H](N[C@@H](C)CC(=O)NC1CNC1)c1ccc(Cl)c(Oc2ccccc2)c1F [Example 234] | 7.3 | – | inhibition at 0.03 µM [2]: 57%
44 | CC[C@@H](N[C@@H](C)CC(=O)N1CCNCC1)c1ccc(Cl)c(Oc2ccccc2)c1F [Example 235] | 0.6 | 0.43 | –
45 | CC[C@@H](N[C@@H](C)CC(=O)N1CCCNCC1)c1ccc(Cl)c(Oc2ccccc2)c1F [Example 236] | 1.7 | – | IC50 [2, 5]: 10 to 150 µM; inhibition at 3 µM ([2]; read-out: Activity % inhibition @ 3 μM, 3 μM compound): 50%
46 | CC[C@@H](N[C@@H](C)CC(N)=O)c1ccc(Cl)c(Oc2ccc(C#N)c(C)c2)c1F [Example 237] | 0.031 | 0.087 | –
47 | CC[C@@H](N[C@@H](C)CC(=O)NCCN)c1ccc(Cl)c(Oc2ccc(N)c(C)c2)c1F [Example 238B, (S)—N-(2-Amino-ethyl)-3-{(R)-1-[3-(4-amino-3-methyl-phenoxy)-4-chloro-2-fluoro-phenyl]-propylamino}-butyramide] | 0.03 | – | EC50 ([1]; Huh-7, replicon assay, set in line with previous observations, read-out: pre-determined EC50 set for the combination experiments): 0.03 µM; inhibition at 0.03 µM [2]: 58%
48 | CC[C@@H](N[C@H](C)CC(=O)NCCN)c1ccc(Cl)c(Oc2ccc(N)c(C)c2)c1F [Example 239] | 0.97 | – | inhibition at 0.03 µM [2]: 41%
49 | CC[C@@H](N[C@@H](C)CC(=O)NCCCN)c1ccc(Cl)c(Oc2ccccc2)c1F [Example 240] | 8.9 | – | inhibition at 0.01 µM ([2]; 0.01 μM compound): 42%

Source: patent US20140288040A1, “SUBSTITUTED BENZYLAMINE COMPOUNDS, THEIR USE IN MEDICINE, AND IN PARTICULAR THE TREATMENT OF HEPATITIS C VIRUS (HCV) INFECTION” (ASTEX THERAPEUTICS LIMITED, priority 2011, published 2014)
